# Biological target: T1, MALT1 paracaspase domain (329-728) (Homo sapiens, UniProt Q9UDY8)
# T1 construct: MALT1 paracaspase domain (329-728) presented a major peak at 55,988.4 Da
# Assay: LC-MS covalent modification
# Format: binding
# Description: The final results were ranked on the predicted binding free energy and the cluster size for each docking conformation.
# HPLC/ESI-MS experiments were carried out on 5 μl sample at 1 mg/ml protein concentration. Separation of proteins was performed on a HP 1100 system (Hewlett Packard, Palo Alto, Calif., USA) employing a 1 mm×150 mm LC Packings column packed with POROS R1/H (Perseptive Biosystems, Foster City, Calif., USA). The column was kept at 80° C. Samples were injected onto the column using a CTC PAL autosampler (CTC, Zwingen Switzerland) fitted with a Valco model C6UW HPLC valve (Valco, Houston, Tex., USA) and a 10 μl injection loop. HPLC was controlled by MassLynx software (Micromass, Manchester, UK). UV detection was performed at 214 nm. Eluent A was water containing 0.05% TFA. Eluent B was a 1:9 mixture of water:acetonitrile containing 0.045% TFA. A gradient from 20% B to 90% B was run in 20 minutes. The flow rate was typically 60 μl/min. The total flow from the LC system was introduced into the UV detection cell prior to introduction in the ESI source. The HPLC system was controlled and the signal from the UV detector was processed using MassLynx software. […] Data were recorded and processed using MassLynx software. […]
# T1 sequence (Q9UDY8 329-728): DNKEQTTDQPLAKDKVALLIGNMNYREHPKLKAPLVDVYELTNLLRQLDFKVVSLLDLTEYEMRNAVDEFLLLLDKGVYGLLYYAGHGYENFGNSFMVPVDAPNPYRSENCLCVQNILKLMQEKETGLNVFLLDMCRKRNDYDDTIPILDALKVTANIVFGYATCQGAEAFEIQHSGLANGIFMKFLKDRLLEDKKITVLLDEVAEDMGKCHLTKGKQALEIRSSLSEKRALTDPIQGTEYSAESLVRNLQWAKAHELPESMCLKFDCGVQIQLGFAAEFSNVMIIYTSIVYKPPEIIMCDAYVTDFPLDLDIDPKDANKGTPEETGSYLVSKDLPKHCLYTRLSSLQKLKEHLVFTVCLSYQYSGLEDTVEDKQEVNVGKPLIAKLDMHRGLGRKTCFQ
structure (smiles),measurement,setting,value
COCCOc1nc(-c2ccc(Cl)c(Cl)c2)n(-c2ccc(NC(=O)CCl)cc2)n1 [MI-2],covalent binding to MALT1,LC-MS,bind covalently
same,increase of the major peak of MALT1 upon incubation,"LC-MS, 55,988.4 Da shifted to 56,407.5 Da",419.1 Da

# From patent US9592223B2, “Small molecule inhibitors of MALT1” (Cornell University, priority 2012, dated 2017)
